According to patent publication US20040116523A1, “Use of c4-c10 acids for preventing gram-negative bacterial infections” (priority 2000, published 2004):

Columns and labels:
[1] = system: tviB′-lacZ fusion (S. typhi strain Ty266); test: β-galactosidase activity of the tviB′-lacZ fusion (specificity control); format: cell-based; conditions: 5 mM in favourable LB medium
Description: (§1) Each of the strains described above was cultured at 37° C. on agar or in TCS broth. The P-galactosidase activity was determined using 4-methyl-umbelliferyl-p-D-galactopyranoside sold by the company Sigma, according to the technique of Klarsfeld et al. (Mol. Mibrobiol., 1994, 13, 585-597). The results, expressed in P-galactosidase units (fluorescence per hour and per OD600), represent the mean of the values obtained in at least three independent experiments. The standard deviations were less than 10% of the values presented.
The tviB gene has been characterized in S. typhi, and it encodes a GDP-dehydrogenase involved in the biosynthesis of the Vi antigen, which is the capsular polysaccharide of the typhus bacillus (Waxin et al., Res. Microbiol., 1993, 144, 363-371).
The results are reported on FIG. 4, in which it is seen that samples were taken every two hours in order to measure the OD600 (corresponding to the open symbols) and in order to determine the β-galactosidase activity (corresponding to the solid symbols).

[2] = system: S. dublin 5917; test: Splenic colonization of C57Bl/6 mice infected orally with S. dublin 5917; format: in vivo; conditions: 50 mM in drinking water pH 7.2-7.3; 10^7 bacteria per animal orally; distilled water 7.7 ± 0.4
Description: They were infected orally in the following way. The Salmonella strains were cultured in TCS broth for 18 hours at 37° C. with shaking (200 rpm). This culture was then adjusted to […] (in the stationary growth phase, 1 OD600 =1.5 ×10^9 bacteria/ml), and then the number of viable bacteria was controlled by counting on TCS agar.
On the day of infection (DO), the drinking-water bottles of the mice were replaced with bottles containing 100 ml of drinking water to which the required number of bacteria had been added.
After infection for 24 hours ([…]), the bottles containing the contaminated drinking water were replaced with bottles containing uncontaminated drinking water.
Seven days after infection (D+7), the spleens of the mice infected in this way were removed and homogenized separately in 1 ml of physiological saline containing 0.7% of NaCl.
The number of viable bacteria per spleen was determined by plating out dilutions of the homogenate, onto TCS agar.
The S. dublin strain 5917 (Coynault & Norel, Microb. Pathog., 1999, 26, 299-305) and S. enteritidis strain LAS (Thorns et al., Microb. Pathog., 1996, 20, 235-246) were used to infect C57B1/6 mice orally at the dose of 10^7 bacteria per animal.

[3] = system: iagA′-lacZ fusion (S. typhi strain Ty267); test: β-galactosidase activity of the iagA′-lacZ fusion in favourable LB medium; format: cell-based; conditions: fatty acid as sodium salt, 5 mM in favourable LB medium, 6 hours at 37° C.; control 22022 ± 1177
Description: (§2) The favourable LB medium (high osmolarity and concentration of Ca^2+ions) was defined as being the standard LB medium modified so as to have a final NaCl concentration of 300 mM and a final Ca concentration of 5 mM.
Each of the strains described above was cultured at 37° C. on agar or in TCS broth. The P-galactosidase activity was determined using 4-methyl-umbelliferyl-p-D-galactopyranoside sold by the company Sigma, according to the technique of Klarsfeld et al. (Mol. Mibrobiol., 1994, 13, 585-597). The results, expressed in P-galactosidase units (fluorescence per hour and per OD600), represent the mean of the values obtained in at least three independent experiments. The standard deviations were less than 10% of the values presented. […]
The β-galactosidase activity of the iagA′-lacZ fusion was measured after incubation for 6 hours at 37° C. with shaking (200 rpm).
The S. typhi Ty267 strain (iagA′-lacZ fusion) was seeded into favourable LB medium and into favourable LB medium containing the fatty acid to be tested, in the form of its sodium salt, at the final concentration of 5 mM.

[4] = system: S. typhi; conditions: 1.25 g/l; cited from earlier work
[5] = system: invF′-lacZ fusion (S. typhi strain Ty272); test: β-galactosidase activity of the invF′-lacZ fusion in favourable LB medium; format: cell-based
Description: as §2, §1
For this, the S. typhi strains Ty267, Ty272 and Ty277, which carry the iagA′-lacZ, invF′-lacZ and sipB′-lacZ fusions, respectively, (see Table I), were cultured in the favourable LB or unfavourable LB medium.
The action of these two compounds on the expression of the iagA′-lacZ, invF′-lacZ and sipB′-lacZ fusions was studied by measuring the β-galactosidase activity expressed by these fusions as a function of the time of culturing (samples removed every two hours).

CCCCCCCC(=O)[O-].[Na+] [sodium caprylate]
effect on the expression of the tviB′-lacZ fusion [1]: no significant effect
Number of viable bacteria in the spleen (mean in log10) [2]: 2.1 ± 0.2 log10
β-Galactosidase activity of the iagA′-lacZ fusion (Table VII) [3]: 445 ± 69 β-galactosidase units
bactericidal activity in vitro on S. typhi [4]: no bactericidal activity
β-galactosidase activity expressed by the invF′-lacZ fusion as % of that in favourable LB medium without the substance ([5]; 1 mM in favourable LB medium): ~20%
expression of the invF gene (invF′-lacZ fusion) ([5]; concentration greater than or equal to 2.5 mM, favourable LB medium): very strongly represses
